Experiments:
[1] = system: astrocytes; test: MTT cell viability assay on cultured astrocytes; type: cell-based; conditions: 48 hours incubation, 0-3 mg/mL tested
Description: In order to test whether virtually screened GMFBI.1 drug like compound is toxic to the cells, different concentrations (0-3 mg/mL) of GMFBI.1 on astrocytes were tested. Test includes performing MTT cell viability assay following 48 hours of incubation with GMFBI.1. […] NC represents […] with 10% Triton X-100.

[2] = system: EAE induced animals; test: Leukocyte infiltrates in brain and spinal cord of EAE animals by H and E staining; type: in vivo, C57BL/6 mice; conditions: 25 days after treatment, versus saline treated EAE controls, P<0.05, n=3
Source text: (§1) Animals were sacrificed 25 days after GMFBI.1 compound treatment and the levels of leukocyte infiltrates in brain as shown in FIG. 7C and spinal cord as shown in FIG. 7D were compared against EAE control by Haematoxylin and Eosin(H and E) staining.

[3] = In vivo toxicity: serum AST and ALT liver enzymes; parameters: species or system mice; conditions: 3, 10 and 25 days
Description: In vitro efficacy of GMFBI.1 compound in down regulating the expression of both proinflammatory mediators p38MAPK and NFκB under the control of GMF-β and its non-toxic nature at lower concentrations was first evaluated. The levels of aspartate amino transferase (AST) and alanine amino transferase (ALT) were measured spectrophotometrically from serum of GMFBI.1 compound administered animals to monitor its liver function as shown in FIG. 6A and FIG. 6B respectively. […] Grey shaded region denotes the normal range of AST and ALT enzymes in mice in FIG. 6A and FIG. 6B respectively.
The GMFBI.1 compound distribution in various compartments (organs, plasma & urine) of normal healthy mice at different time intervals (30 minutes, 1, 2, 3 and 6 hours) and its distribution profile (n=3 per group), is shown in FIG. 6C. […] Further, again 300 μg of GMFBI.1 was injected in EAE animals and the blood brain barrier is compromised as in MS patients. […] Both AST and ALT activity was measured at 3, 10 and 25 days.

[4] = system: p38MAPK; test: p38MAPK expression in LPS stimulated cultured astrocytes; type: cell-based; conditions: 500 ng/mL, n=3
[5] = system: EAE induced animals; test: Reversal of EAE: clinical scores in paralyzed EAE animals; type: in vivo, C57BL/6 mice
Description: (§2) Treatment was given to a group of animals with average clinical score of 3 for a period of 2 weeks. EAE induced animals were injected at clinical score 3.5 with GMFBI.1 compound 300 μg/mice (12 mg/Kg) twice daily at day 13.EAE clinical scores of C57BL/6 mice treated with GMFBI.1 compound ([…] i.p twice daily) and controls with saline (n=5 per group) is shown in FIG. 7A.
as §1

[6] = Bio-distribution in compartments of normal healthy mice; type: in vivo, C57BL/6 mice; conditions: 300 μg intraperitoneal
Description: (§3) The GMFBI.1 compound distribution in various compartments (organs, plasma & urine) of normal healthy mice at different time intervals (30 minutes, 1, 2, 3 and 6 hours) and its distribution profile (n=3 per group), is shown in FIG. 6C. […] Further, again 300 μg of GMFBI.1 was injected in EAE animals and the blood brain barrier is compromised as in MS patients. […] Based on these observations, mice was injected twice daily with 300 μg/mice (12 mg/Kg) GMFBI.1 for 25 days. Both AST and ALT activity was measured at 3, 10 and 25 days.

[7] = target: GMF-β (Homo sapiens, UniProt P60983); test: In vitro phosphorylation of purified GMF-β by PKA; type: biochemical; conditions: 250 ng/mL GMFBI.1, 1 μg/mL GMF-β, versus lane without compound
Description: With the in silico proof of concept showing high binding efficacy to GMF-β phosphorylation sites, in vitro phosphorylation studies using PKA (PKA phosphorylation results in activation of the downstream proinflammatory cascade) and purified GMF-β in presence and absence of GMFBI.1 compound is performed. […] In FIG. 4B, “+” sign indicates experiment with 1 μg/mL GMF-β and PKA, “−” indicates control reaction in the absence of PKA and “GMFBI.1” indicates phosphorylation level on GMF-β in the presence of small molecule GMFBI.1 (250 ng/mL).

[8] = Distribution into brain of EAE mice; type: in vivo
Description: as §3, §2

[9] = system: proinflammatory and anti-inflammatory cytokines; test: Cytokine levels in treated EAE animals (relative fold change); type: in vivo, C57BL/6 mice
Source text: From FIG. 7G, it is observed that down regulation of these inflammatory cytokines has potential significance in the therapy and increased levels of anti-inflammatory cytokines particularly IL-10 and TGF beta levels. In MS patients, the levels of TGF beta and IL-10 are low compared to healthy individuals and significant down regulation of IL-17 are promising as IL-17 drives the inflammation in EAE and MS disease.

[10] = system: NFκB; test: NFκB expression in LPS stimulated cultured astrocytes; type: cell-based; conditions: 500 ng/mL, n=3
[11] = 300 μg/mice twice daily for 25 days
[12] = versus untreated EAE controls, n=3

Sequence of GMF-β (P60983 2-142 limits assumed): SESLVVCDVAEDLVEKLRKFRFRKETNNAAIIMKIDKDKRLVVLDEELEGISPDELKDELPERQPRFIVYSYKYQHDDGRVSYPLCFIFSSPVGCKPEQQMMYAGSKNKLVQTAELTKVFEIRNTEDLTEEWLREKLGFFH

amount of compound in liver within three hours [6]: significantly reduced compared to 2 hrs
compound in kidney within three hours [6]: transiently seen in kidney
compound in urine within three hours [6]: found majorly in urine
phosphorylation of GMF-β by PKA [7]: several fold decrease in phosphorylation
amount of compound in brain by 3 hrs ([8]; 300 μg injected, EAE animals): ≤ 15 µg
compound in brain by 6 hrs ([8]; 300 μg injected, EAE animals): no GMFBI.1 may be detected in the brain
time by which compound is detected in brain ([8]; 300 μg injected, EAE animals): ≤ 2 h
blood brain barrier crossing ([8]; EAE mice): able to cross the blood brain barrier
retention in the system ([8]; EAE mice): at least three hours
SMILES: OCc1cccc2[nH]ncc12 [GMFBI.1, (1-H Indazol-4-yl)-methanol]
concentration up to which astrocytes remained viable [1]: ≤ 1000 µg/mL
number of cellular infiltrates in brain [2]: significant reduction in the number of cellular infiltrates
number of cellular infiltrates in spinal cord [2]: significant reduction in the number of cellular infiltrates
ALT activity level versus control [3, 11]: remained similar to that of control
AST activity level versus control [3, 11]: remained similar to that of control
serum ALT level versus saline controls ([3]; 14 mg/kg twice daily): No significant difference
serum AST level versus saline controls ([3]; 14 mg/kg twice daily): No significant difference
p38MAPK protein expression [4]: statistically significant suppression
EAE clinical score by day 18 ([5]; 300 μg/mice (12 mg/Kg; also printed 14 mg/kg i.p) twice daily from day 13, n=5): the clinical score started to improve
clinical score versus control ([5]; from 7th day after treatment, P<0.001): Significant reduction in the clinical score
body weight over time versus control animals ([5]; treated EAE animals): significant weight gain
EAE clinical score by day 40 ([5]; twice daily i.p. from day 13): very low clinical score
locomotor motion by day 30 ([5]; twice daily i.p. from day 13): able to show improvements in locomotor motion and was able to walk
compound in brain of healthy mice at any time period [6]: no GMFBI.1 compound was detected in the brains
compound in plasma at 30 mins to 1 hr [6]: most of the GMFBI.1 compound remained in the plasma
compound in plasma by two hours [6]: no GMFBI.1 compound could be detected in plasma
free compound in organs by 6 hrs [6]: no free GMFBI.1 compound in any of the organs were detected
IL1-β level ([9]; following treatment): down regulated significantly
GMCSF level ([9]; versus EAE controls, n=3): significant decrease
IFN-γ level ([9]; versus EAE controls, n=3): significant decrease
IL-6 level ([9]; versus EAE controls, n=3): significant decrease
IL-17A level ([9]; versus EAE controls, n=3): significant decrease
TNF-α level ([9]; versus EAE controls, n=3): significant decrease
IL-10 level (anti-inflammatory) [9, 12]: elevated significantly
TGF-β level (anti-inflammatory) [9, 12]: elevated significantly
NFκB protein expression [10]: statistically significant suppression

From US11110078B2, “Composition and method for treatment of diseases associated with central nervous system inflammation” (AMRITA VISHWA VIDYAPEETHAM, priority 2019, dated 2021)
